Values after ≈ are worked out from the molar mass of the structure shown.
How the values were obtained:
Assay in all cases: MIC, standard broth micro-dilution assay
Format in all cases: cell-based
Entercoccus faecalis 276 = test system: Entercoccus faecalis 276
Description: (§1) The formula I compounds have in vitro and in vivo activity against Gram-positive pathogenic bacteria. The MIC's were determined using a standard broth micro-dilution assay.

[1] = test system: Entercoccus faecalis 2041
Description: as §1

[2] = test system: Entercoccus gallinarum 245
Description: as §1

Row | SMILES | MIC (Entercoccus faecalis 276) | MIC [1] | MIC [2]
1 | CNC(CC(C)C)C(=O)NC1C(=O)NC(CC(N)=O)C(=O)NC2C(=O)NC3C(=O)NC(C(=O)NC(C(=O)O)c4cc(O)cc(O)c4-c4cc3ccc4O)C(OC3CC(C)(N)C(O)C(C)O3)c3ccc(c(Cl)c3)Oc3cc2cc(c3OC2OC(CO)C(O)C(O)C2OC2CC(C)(NCc3cccc(Oc4ccc(C(F)(F)F)cc4)c3)C(O)C(C)O2)Oc2ccc(cc2Cl)C1O (stereo not drawn) [Compound 132, 3-[4-trifluoromethylphenoxy]benzyl] | 1 µg/mL (≈ 0.543 µM) | 1 µg/mL (≈ 0.543 µM) | 2 µg/mL (≈ 1.09 µM)
2 | CNC(CC(C)C)C(=O)NC1C(=O)NC(CC(N)=O)C(=O)NC2C(=O)NC3C(=O)NC(C(=O)NC(C(=O)O)c4cc(O)cc(O)c4-c4cc3ccc4O)C(OC3CC(C)(N)C(O)C(C)O3)c3ccc(c(Cl)c3)Oc3cc2cc(c3OC2OC(CO)C(O)C(O)C2OC2CC(C)(NCc3ccc(-c4ccc([N+](=O)[O-])cc4)c([N+](=O)[O-])c3)C(O)C(C)O2)Oc2ccc(cc2Cl)C1O (stereo not drawn) [Compound 212, 3-nitro-4-[4-nitrophenyl]benzyl] | ≤ 0.06 µg/mL | ≤ 0.06 µg/mL | 1 µg/mL (≈ 0.541 µM)
3 | CNC(CC(C)C)C(=O)NC1C(=O)NC(CC(N)=O)C(=O)NC2C(=O)NC3C(=O)NC(C(=O)NC(C(=O)O)c4cc(O)cc(O)c4-c4cc3ccc4O)C(OC3CC(C)(N)C(O)C(C)O3)c3ccc(c(Cl)c3)Oc3cc2cc(c3OC2OC(CO)C(O)C(O)C2OC2CC(C)(NCCCCCCCCCC#Cc3ccccc3)C(O)C(C)O2)Oc2ccc(cc2Cl)C1O (stereo not drawn) [Compound 236, 11-phenyl-10-undecynyl] | 2 µg/mL (≈ 1.1 µM) | 1 µg/mL (≈ 0.55 µM) | 4 µg/mL (≈ 2.2 µM)
4 | CNC(CC(C)C)C(=O)NC1C(=O)NC(CC(N)=O)C(=O)NC2C(=O)NC3C(=O)NC(C(=O)NC(C(=O)O)c4cc(O)cc(O)c4-c4cc3ccc4O)C(OC3CC(C)(N)C(O)C(C)O3)c3ccc(c(Cl)c3)Oc3cc2cc(c3OC2OC(CO)C(O)C(O)C2OC2CC(C)(NCc3cc4ccccc4c4ccccc34)C(O)C(C)O2)Oc2ccc(cc2Cl)C1O (stereo not drawn) [Compound 11, 9-phenanthranylmethyl] | 1 µg/mL (≈ 0.561 µM) | 0.5 µg/mL (≈ 0.28 µM) | ≤ 0.06 µg/mL
5 | CNC(CC(C)C)C(=O)NC1C(=O)NC(CC(N)=O)C(=O)NC2C(=O)NC3C(=O)NC(C(=O)NC(C(=O)O)c4cc(O)cc(O)c4-c4cc3ccc4O)C(OC3CC(C)(N)C(O)C(C)O3)c3ccc(c(Cl)c3)Oc3cc2cc(c3OC2OC(CO)C(O)C(O)C2OC2CC(C)(NCc3ccc(-c4ccccc4)cc3)C(O)C(C)O2)Oc2ccc(cc2)C1O (stereo not drawn) [Compound 185, 4-phenylbenzyl] | ≤ .06 µg/mL | ≤ .06 µg/mL | ≤ .06 µg/mL
6 | CC#CCCCCCCCCCCNC1(C)CC(OC2C(Oc3c4cc5cc3Oc3ccc(cc3Cl)C(OC3CC(C)(N)C(O)C(C)O3)C3NC(=O)C(NC(=O)C5NC(=O)C(CC(N)=O)NC(=O)C(NC(=O)C(CC(C)C)NC)C(O)c5ccc(c(Cl)c5)O4)c4ccc(O)c(c4)-c4c(O)cc(O)cc4C(C(=O)O)NC3=O)OC(CO)C(O)C2O)OC(C)C1O (stereo not drawn) [Compound 199, 11-tridecynyl] | 1 µg/mL (≈ 0.565 µM) | ≤ 0.06 µg/mL | 4 µg/mL (≈ 2.26 µM)
7 | CNC(CC(C)C)C(=O)NC1C(=O)NC(CC(N)=O)C(=O)NC2C(=O)NC3C(=O)NC(C(=O)NC(C(=O)O)c4cc(O)cc(O)c4-c4cc3ccc4O)C(OC3CC(C)(N)C(O)C(C)O3)c3ccc(c(Cl)c3)Oc3cc2cc(c3OC2OC(CO)C(O)C(O)C2OC2CC(C)(NCc3cccc(OC(=O)C4CCCCC4)c3)C(O)C(C)O2)Oc2ccc(cc2Cl)C1O (stereo not drawn) [Compound 165, 3-cyclohexanoyloxybenzyl] | 0.5 µg/mL (≈ 0.276 µM) | ≤ 0.06 µg/mL | 4 µg/mL (≈ 2.21 µM)
8 | CNC(CC(C)C)C(=O)NC1C(=O)NC(CC(N)=O)C(=O)NC2C(=O)NC3C(=O)NC(C(=O)NC(C(=O)O)c4cc(O)cc(O)c4-c4cc3ccc4O)C(OC3CC(C)(N)C(O)C(C)O3)c3ccc(c(Cl)c3)Oc3cc2cc(c3OC2OC(CO)C(O)C(O)C2OC2CC(C)(NCCc3ccc(Cc4ccccc4)cc3)C(O)C(C)O2)Oc2ccc(cc2Cl)C1O (stereo not drawn) [Compound 35, 4 -benzylphenethyl] | ≤ 0.06 µg/mL | ≤ 0.06 µg/mL | ≤ 0.06 µg/mL
9 | CNC(CC(C)C)C(=O)NC1C(=O)NC(CC(N)=O)C(=O)NC2C(=O)NC3C(=O)NC(C(=O)NC(C(=O)O)c4cc(O)cc(O)c4-c4cc3ccc4O)C(OC3CC(C)(N)C(O)C(C)O3)c3ccc(c(Cl)c3)Oc3cc2cc(c3OC2OC(CO)C(O)C(O)C2OC2CC(C)(NCc3ccc4c(c3O)Cc3ccccc3-4)C(O)C(C)O2)Oc2ccc(cc2Cl)C1O (stereo not drawn) [Compound 103, 2-[1-hydroxy]fluorenylmethyl] | 0.25 µg/mL (≈ 0.14 µM) | ≤ 0.06 µg/mL | 8 µg/mL (≈ 4.48 µM)
10 | CCCCCCCC#Cc1ccc(CN[C@@]2(C)C[C@H](O[C@H]3[C@H](Oc4c5cc6cc4Oc4ccc(cc4Cl)[C@@H](O[C@H]4C[C@](C)(N)[C@@H](O)[C@H](C)O4)[C@@H]4NC(=O)[C@H](NC(=O)[C@@H]6NC(=O)[C@H](CC(N)=O)NC(=O)[C@H](NC(=O)[C@@H](CC(C)C)NC)[C@H](O)c6ccc(c(Cl)c6)O5)c5ccc(O)c(c5)-c5c(O)cc(O)cc5[C@@H](C(=O)O)NC4=O)O[C@H](CO)[C@@H](O)[C@@H]3O)O[C@@H](C)[C@@H]2O)cc1 [Compound 232, 4-[1-nonynyl]benzyl] | 8 µg/mL (≈ 4.43 µM) | 2 µg/mL (≈ 1.11 µM) | 32 µg/mL (≈ 17.7 µM)
11 | CNC(CC(C)C)C(=O)NC1C(=O)NC(CC(N)=O)C(=O)NC2C(=O)NC3C(=O)NC(C(=O)NC(C(=O)O)c4cc(O)cc(O)c4-c4cc3ccc4O)C(OC3CC(C)(N)C(O)C(C)O3)c3ccc(c(Cl)c3)Oc3cc2cc(c3OC2OC(CO)C(O)C(O)C2OC2CC(C)(NCc3ccc(OC(=O)C4CCCCC4)cc3)C(O)C(C)O2)Oc2ccc(cc2Cl)C1O (stereo not drawn) [Compound 157, 4-cyclohexanoyloxybenzyl] | ≤ 0.06 µg/mL | ≤ 0.06 µg/mL | 1 µg/mL (≈ 0.553 µM)
12 | CNC(CC(C)C)C(=O)NC1C(=O)NC(CC(N)=O)C(=O)NC2C(=O)NC3C(=O)NC(C(=O)NC(C(=O)O)c4cc(O)cc(O)c4-c4cc3ccc4O)C(OC3CC(C)(N)C(O)C(C)O3)c3ccc(c(Cl)c3)Oc3cc2cc(c3OC2OC(CO)C(O)C(O)C2OC2CC(C)(NCc3ccc(OCCOCCCl)cc3)C(O)C(C)O2)Oc2ccc(cc2Cl)C1O (stereo not drawn) [Compound 75] | ≤ 0.06 µg/mL | ≤ 0.06 µg/mL | 4 µg/mL (≈ 2.22 µM)
13 | CNC(CC(C)C)C(=O)NC1C(=O)NC(CC(N)=O)C(=O)NC2C(=O)NC3C(=O)NC(C(=O)NC(C(=O)O)c4cc(O)cc(O)c4-c4cc3ccc4O)C(OC3CC(C)(N)C(O)C(C)O3)c3ccc(cc3)Oc3cc2cc(c3OC2OC(CO)C(O)C(O)C2OC2CC(C)(NCc3ccc(Oc4ccccc4)cc3)C(O)C(C)O2)Oc2ccc(cc2)C1O (stereo not drawn) [Compound 184, 4-phenoxybenzyl] | 0.5 µg/mL (≈ 0.293 µM) | 1 µg/mL (≈ 0.586 µM) | 4 µg/mL (≈ 2.34 µM)
14 | CNC(CC(C)C)C(=O)NC1C(=O)NC(CC(N)=O)C(=O)NC2C(=O)NC3C(=O)NC(C(=O)NC(C(=O)O)c4cc(O)cc(O)c4-c4cc3ccc4O)C(OC3CC(C)(N)C(O)C(C)O3)c3ccc(c(Cl)c3)Oc3cc2cc(c3OC2OC(CO)C(O)C(O)C2OC2CC(C)(NCc3ccc(N=Nc4ccccc4)cc3)C(O)C(C)O2)Oc2ccc(cc2Cl)C1O (stereo not drawn) [Compound 210, 4-[phenylazo]benzyl] | ≤ 0.06 µg/mL | ≤ 0.06 µg/mL | 1 µg/mL (≈ 0.56 µM)
